# Experimental data reported in the supplement of paper PMC10307832.
# Columns and labels:
# Assay in all cases: relative viability (nuclei count vs DMSO), 5 days (fraction); higher = more cells survive
# GSK-J4 + Dasatinib = compound: CCOC(=O)CCNc1cc(N2CCc3ccccc3CC2)nc(-c2ccccn2)n1 [GSK-J4] + Cc1nc(Nc2ncc(C(=O)Nc3c(C)cccc3Cl)s2)cc(N2CCN(CCO)CC2)n1 [Dasatinib] (partner 0.075 µM)
# Method in brief: (§1)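 Medians of duplicate plates are given as relative viability. That measure is the nuclei count in treated wells divided by the count in vehicle wells. Counts were taken on 4× images of lung cancer cell lines in 1536-well plates, 5 days after pin-tool dosing the day after seeding with one drug alone or a fixed anchor-drug dose plus five library-drug doses (not always all listed) in √10 steps.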
# AZ3146 + Trametinib = compound: CN1CCC(CC1)OC2=CC(=C(C=C2)NC3=NC=C4C(=N3)N(C(=O)N4C)C5CCCC5)OC [AZ3146] + CC(=O)Nc1cccc(-n2c(=O)n(C3CC3)c(=O)c3c(Nc4ccc(I)cc4F)n(C)c(=O)c(C)c32)c1 [Trametinib] (partner 0.02 µM)
# Method in brief: as §1
# AZ3146 + Foretinib = compound: CN1CCC(CC1)OC2=CC(=C(C=C2)NC3=NC=C4C(=N3)N(C(=O)N4C)C5CCCC5)OC [AZ3146] + COc1cc2c(Oc3ccc(NC(=O)C4(C(=O)Nc5ccc(F)cc5)CC4)cc3F)ccnc2cc1OCCCN1CCOCC1 [Foretinib] (partner 0.25 µM)
# Method in brief: as §1
# AZ3146 + Pictilisib = compound: CN1CCC(CC1)OC2=CC(=C(C=C2)NC3=NC=C4C(=N3)N(C(=O)N4C)C5CCCC5)OC [AZ3146] + CS(=O)(=O)N1CCN(Cc2cc3nc(-c4cccc5[nH]ncc45)nc(N4CCOCC4)c3s2)CC1 [Pictilisib] (partner 1 µM)
# Method in brief: as §1
Cell Line,relative viability (GSK-J4 + Dasatinib; first compound 0.5 µM),relative viability (GSK-J4 + Dasatinib; first compound 1.581 µM),relative viability (GSK-J4 + Dasatinib; first compound 5 µM),relative viability (GSK-J4 + Dasatinib; first compound 15.81 µM),relative viability (GSK-J4 + Dasatinib; first compound 50 µM),relative viability (AZ3146 + Trametinib; first compound 0.08 µM),relative viability (AZ3146 + Trametinib; first compound 0.253 µM),relative viability (AZ3146 + Trametinib; first compound 0.8 µM),relative viability (AZ3146 + Trametinib; first compound 2.53 µM),relative viability (AZ3146 + Trametinib; first compound 8 µM),relative viability (AZ3146 + Foretinib; first compound 0.08 µM),relative viability (AZ3146 + Foretinib; first compound 0.253 µM),relative viability (AZ3146 + Foretinib; first compound 0.8 µM),relative viability (AZ3146 + Foretinib; first compound 2.53 µM),relative viability (AZ3146 + Foretinib; first compound 8 µM),relative viability (AZ3146 + Pictilisib; first compound 0.08 µM),relative viability (AZ3146 + Pictilisib; first compound 0.253 µM),relative viability (AZ3146 + Pictilisib; first compound 0.8 µM),relative viability (AZ3146 + Pictilisib; first compound 2.53 µM),relative viability (AZ3146 + Pictilisib; first compound 8 µM)
LC-2-ad,0.689,0.429,0.535,0.44,0.351,0.858,0.928,0.928,0.894,0.902,0.735,0.905,1.06,0.935,0.878,0.398,0.483,0.425,0.579,0.41
COR-L 105,0.338,0.38,0.276,0.315,0.326,0.471,0.414,0.477,0.427,0.353,1.11,1.04,0.857,0.687,0.455,0.38,0.406,0.419,0.356,0.237
NCI-H647,0.2,0.164,0.0733,0.285,0.131,0.365,0.44,0.366,0.476,0.317,1.01,1.21,0.857,1.16,1.21,0.485,0.423,0.258,0.366,0.476
NCI-H1915,0.342,0.36,,0.316,0.352,0.312,0.303,0.294,0.306,0.319,0.92,1.12,1.1,1.22,1.16,0.748,0.911,1.11,1,1.07
NCI-H2087,0.747,,0.725,0.694,0.645,0.201,0.196,0.214,0.214,0.182,1.06,1.11,1.12,1.05,0.531,1.14,0.926,0.669,0.968,0.847
NCI-H2085,0.288,0.273,0.388,0.223,0.377,0.495,0.57,0.506,1.03,0.403,0.898,1,0.977,1,0.868,0.486,0.433,0.506,0.547,0.438
